Laboratory results taken from US9738614B2, “Malignant and non-malignant disease treatment with Ras antagonists” (PISCES THERAPEUTICS, LLC, priority 2011, dated 2017).
Read-outs that look alike come from different tables or passages of the source.

Tests used:
[1] = test system: LAM cells; assay: IC50 assay with lymphangioleiomyomatosis (LAM) cells; assay type: cell-based; conditions: Homo sapiens, 0.1 to 50 μM, read-out: half-maximal inhibition of viability
Procedure: (§1) U87MG cells were seeded in a 24-well plate, 5000 cells per well, and incubated overnight at 37° C. in serum-free media. The next day they were treated in triplicate with 50 and 100 μM of each test compound (1), (2), (3), (4), and (5) and the reference compound FTS. After five days, the cells were trypsinized (0.5%), stained with trypan blue, and counted to determine the cell number per well. The half-maximal inhibitory concentration (IC50) values were calculated using Multiplex Reader-Fit software made by MiraiBio Group, Hitachi Solutions America, Ltd. In a typical experiment, the control wells averaged 138,000 cells. The results are presented graphically in FIG. 1. The test compounds at 50 μM allowed the following U87MG cell proliferation compared to control: compound (1)—37%, compound (2)—18%, compound (3)—10%, compound (4)—40%, and compound (5)—0%. The reference compound FTS at 50 μM allowed 7% cell proliferation compared to control.
Human lymphangioleiomyomatosis (LAM) cells were subjected to an IC50 assay similar to Example 6 above.

[2] = test system: GBM6 cells; assay: IC50 assay with GBM6 glioblastoma cells; assay type: cell-based; conditions: Homo sapiens, 1 to 5 μM, read-out: half-maximal effect on cell viability
Procedure: as §1
An IC50 assay similar to Example 6 above was performed with GBM6 cells prepared from minced, freshly harvested tumor tissue. GBM6 cells were grown in the presence of compound (5) at concentrations ranging from 1 to 5 μM.

[3] = test system: sNFO2.2 cells; assay: IC50 assay with sNFO2.2 MPNST cells; assay type: cell-based; conditions: Homo sapiens, 0.5 to 20 μM, read-out: half-maximal effect on viability
Procedure: as §1
(§2) Two additional MPNST cell lines, sNF94.3 and sNFO2.2, were subjected to IC50 assays similar to Examples 6 and 11 above. Like the ST88-14 cells from Example 11, the sNF94.3 and sNFO2.2 cells came from NF-1 patients too.

[4] = test system: hematopoietic progenitor cells (cord blood low density cells); assay: Human hematopoietic progenitor cell toxicity (colony assay); assay type: cell-based; conditions: 12 days; 25 and 2.5 μM for compound (3), 2.5 and 0.25 μM for compound (5)
Procedure: Cord blood low density cells were plated at 1×10^5 cells per plate in 1 mL complete methylcellulose in the presence of each test compound (3) and (5) and incubated for 12 days in a CO2 incubator. Colony-forming unit-granulocyte (CFU-GM), burst-forming unit-erythroid (BFU-E), and mixed colonies were counted under an inverted microscope. […] The test compounds were not toxic to the hematopoietic progenitor cells.

[5] = test system: ECC1 cells; assay: IC50 assay with ECC1 endometrial cancer cells; assay type: cell-based; conditions: Homo sapiens, ECC-1, 1 to 50 μM, read-out: half-maximal inhibition of viability
Procedure: as §1
(§3) ECC1 (well differentiated) and USPC1 (poorly differentiated) endometrial cancer cells were subjected to IC50 assays similar to Example 6 above. The cells were grown in concentrations of compound (5) ranging from 1 to 50 μM.

[6] = test system: EJ cells; assay: IC50 assay with EJ bladder cancer cells; assay type: cell-based; conditions: Homo sapiens, 1.5 to 25 μM, read-out: half-maximal inhibition of viability
Procedure: as §1
EJ bladder cancer cells, which harbor a H-Ras mutation, were subjected to an IC50 assay similar to Example 6 above. EJ cells were grown in concentrations of compound (5) ranging from 1.5 to 25 μM.

[7] = test system: ST88-14 cells; assay: IC50 assay with ST88-14 MPNST cells; assay type: cell-based, human; conditions: 0.1 to 50 μM, two separate experiments, read-out: half-maximal effects on cell viability
Procedure: as §1
IC50 assays similar to Example 6 above were performed with ST88-14 cells derived from a MPNST removed from a patient who had NF-1. The cells have loss-of-function mutations in both copies of the NF-1 gene, neurofibromin, which is discussed further above. ST88-14 cells were grown in concentrations of compound (5) ranging from 0.1 to 50 μM in two separate experiments. […]

[8] = test system: ST88-14 cells; assay: ST88-14 MPNST flank tumors in nude mice; assay type: in vivo, mouse; conditions: 5 mg/kg or 10 mg/kg intraperitoneally once a day
Procedure: ST88-14 cells were injected into the flanks of nude mice and tumors were allowed to grow. When their lengths and widths could readily be determined by palpation, the animals were treated with compound (5) at doses of 5 mg/kg or 10 mg/kg intraperitoneally once a day or vehicle. Tumor dimensions were determined over the course of a 35 day treatment period at the end of which the animals were killed. At this point the tumors were removed and weighed.

[9] = test system: USPC1 cells; assay: IC50 assay with USPC1 endometrial cancer cells; assay type: cell-based; conditions: 1 to 50 μM, read-out: half-maximal inhibition of viability
Procedure: as §1, §3

[10] = test system: NF-1+/- mast cells; assay: NF-1+/- mast cell proliferation (3H-thymidine incorporation); assay type: cell-based; conditions: 0-12.5 μM, 24 hours after SCF stimulation (FIG. 4B)
Procedure: Purified populations of NF-1+/−mast cells were stimulated with a maximum stimulating concentration of stem cell factor (SCF) in the presence of a control or compound (5) at concentrations of 10-15 μM. The activated, GTP-bound form of Ras (Ras-GTP) was measured 3 minutes subsequently using Western blot analysis. […] In parallel experiments, mast cell proliferation was measured using 3H-thymidine incorporation 24 hours after SCF stimulation in the presence of a control or compound (5) at concentrations of 0-12.5 μM. […] Each asterisk in FIG. 4B represents a statistical difference relative to the control using analysis of variance. (Yang, Feng-Chun, et. al. J Clin Invest 2003, 112(12), 1851-1861; Yang, Feng-Chun, et. al. Hum Mol Genet 2006, 15(11), 1921-1930).

[11] = test system: JW16 cells; assay: IC50 assay with JW16 mouse MPNST cells; assay type: cell-based; conditions: 0.5 to 20 μM, read-out: half-maximal effect on viability
Procedure: as §1
(§4) Mouse models of NF-1 related MPNST have been made. Cells from two such mice, JW16 and JW19, have been isolated and propagated. The JW16 and JW19 cells were subjected to IC50 assays similar to Example 6 above.

[12] = test system: JW19 cells; assay: IC50 assay with JW19 mouse MPNST cells; assay type: cell-based; conditions: 0.5 to 20 μM, read-out: half-maximal effect on viability
Procedure: as §1, §4

[13] = test system: primary human lung fibroblasts; assay: Inhibition of TGF-β induced myofibroblast formation (α-SMA Western blot); assay type: cell-based; conditions: Homo sapiens, Fibroblast, TGF-β 72 hours, 0.5 to 2 μM
Procedure: Primary human lung fibroblasts were stimulated for 72 hours with transforming growth factor beta (TGF-β) to induce their differentiation to an alpha smooth muscle actin (α-SMA) expressing activated myofibroblasts cell fate. […] The activin like kinase receptor (ALK5) inhibitor SB431542 was used as a positive control. Myofibroblast formation was evaluated by Western blot by examining changes in α-SMA levels.

[14] = test system: sNF94.3 cells; assay: IC50 assay with sNF94.3 MPNST cells; assay type: cell-based; conditions: Homo sapiens, 0.5 to 20 μM, read-out: half-maximal effect on viability
Procedure: as §1, §2

- IC50 [2]: 3.5 µM
- IC50 [5]: 4 µM
- IC50 [6]: 2.5 µM
- IC50 [9]: 2 µM
Compound: CC(C)=CCC/C(C)=C/CC/C(C)=C/CSc1ccccc1C1=NCCN1 [compound (5), 2-(2-{[(2E,6E)-3,7,11-trimethyldodeca-2,6,10-trien-1-yl]sulfanyl}phenyl)-4,5-dihydro-1H-imidazole]
- IC50 [1]: 4 µM
- IC50 [3]: 2.9 µM
- toxicity to hematopoietic progenitor cells (CFU-GM, BFU-E, mixed colonies) [4]: not toxic
- IC50 ([7]; Homo sapiens, ST88-14, ST88-14 cells): 5.5 µM
- IC50 ([7]; ST88-14 cells): 6.6 µM
- tumor size ([8]; 35 day treatment): dose dependent decrease
- tumor weight ([8]; end of 35 day treatment): dose dependent decrease
- mast cell proliferation relative to the control [10]: reduced
- IC50 [11]: 2.2 µM
- IC50 [12]: 4 µM
- EC50 [13]: ~1 µM
- IC50 [14]: 2.7 µM
